Measured values: ChEMBL document CHEMBL3627596, “Discovery of Novel Inhibitor Scaffolds against the Metallo-β-lactamase VIM-2 by Surface Plasmon Resonance (SPR) Based Fragment Screening” (J Med Chem, 2015)

Legend:
Beta-lactamase VIM-2 [1] = molecular target: T1, Beta-lactamase VIM-2 (Pseudomonas aeruginosa, UniProt Q9K2N0); assay: Inhibition of Pseudomonas aeruginosa 301-5473 metallo-beta-lactamase VIM-2 expressed in Escherichia coli BL21(DE3) using nitrocefin as substrate preincubated for 5 mins followed by substrate addition measured every 17 secs for 20 mins by microplate reader analysis
Beta-lactamase VIM-2 [2] = molecular target: T1, Beta-lactamase VIM-2; assay: Reversible binding affinity to Pseudomonas aeruginosa 301-5473 metallo-beta-lactamase VIM-2 expressed in Escherichia coli BL21(DE3) measured for 15 secs by SPR analysis
[3] = molecular target: Beta-lactamase VIM-2 (Pseudomonas aeruginosa) (UniProt Q9K2N0); details: 301-5473
Description: Reversible binding affinity to Pseudomonas aeruginosa 301-5473 metallo-beta-lactamase VIM-2 expressed in Escherichia coli BL21(DE3) assessed as association constant measured for 30 secs by SPR analysis

Beta-lactamase VIM-2 [4] = molecular target: T1, Beta-lactamase VIM-2; assay: Dissociation rate constant to Pseudomonas aeruginosa 301-5473 metallo-beta-lactamase VIM-2 expressed in Escherichia coli BL21(DE3) by SPR analysis
Beta-lactamase VIM-2 [5] = molecular target: T1, Beta-lactamase VIM-2; assay: Binding affinity to Pseudomonas aeruginosa 301-5473 metallo-beta-lactamase VIM-2 expressed in Escherichia coli BL21(DE3) measured for 15 secs by SPR analysis
[6] = molecular target: Beta-lactamase VIM-2 (Pseudomonas aeruginosa) (UniProt Q9K2N0); assay: Inhibition of Pseudomonas aeruginosa 301-5473 metallo-beta-lactamase VIM-2 expressed in Escherichia coli BL21(DE3) using nitrocefin as substrate at 500 uM preincubated for 5 mins followed by substrate addition measured every 17 secs for 20 mins by microplate reader analysis relative to control

Compound	IC50 (Beta-lactamase VIM-2 [1]) [µM]	Kd (Beta-lactamase VIM-2 [2]) [µM]	Ka [3] [×10⁴ /M/s]	koff (Beta-lactamase VIM-2 [4]) [s⁻¹]	Kd (Beta-lactamase VIM-2 [5]) [µM]	inhibition [6] [%]
COC(=O)c1ccccc1C(=O)c1ccccc1	> 3000					
O=C(O)c1ccccc1C(=O)c1ccccc1 [2-BENZOYLBENZOIC ACID]	8					
C[C@H](CS)C(=O)N1CCC[C@H]1C(=O)O [CAPTOPRIL]	3.5	0.6	4.2	0.025		
O=C(O)c1ccccc1Cc1ccccc1	> 1000					
N#Cc1c(C(F)(F)F)cc(-c2cccs2)nc1O	314				229	> 15
O=C(O)c1ccccc1C(=O)c1ccc(Cl)cc1	12					
O=C(O)CSc1ccnc2cc(Cl)ccc12	205				264	> 15
O=C(O)c1ccccc1C(=O)c1ccc(F)cc1	14				9	> 15
CC(=O)c1ccccc1C(=O)O	> 1000					
N#Cc1coc2ccccc2c1=O	1430				999	> 15
C[C@@H](O)[C@H]1C(=O)N2C(C(=O)O)=C(S[C@@H]3CN[C@H](C(=O)N(C)C)C3)[C@H](C)[C@H]12 [MEROPENEM]		12				
O=C(O)CCCc1c[nH]c2ccccc12	757				274	> 15
O=C(O)c1cncc(C#Cc2ccccc2)c1	298				446	> 15
Cn1c(S)nnc1C(F)(F)F	232				145	> 15
CCCc1ccc(C(=O)CCC(=O)O)cc1	287				173	> 15
